Here are results for six molecules from publication PMC12497685, “Anticoronavirus Isoquinoline Alkaloids: Unraveling the Secrets of Their Structure–Activity Relationship” (Influenza and Other Respiratory Viruses, 2025).

Holding throughout (format): cell-based
For experiment [1], the system named is SARS‐CoV‐2 spike protein pseudotyped lentivirus, D614G variant. The following applies: read-out: Pseudovirus assay, IC50, D614G.
Experiment [2] relates to SARS‐CoV‐2 spike protein pseudotyped lentivirus, Delta variant. Description: organism not typed. As to conditions: read-out: Pseudovirus assay, IC50, Delta.
Experiment [3] concerns SARS‐CoV‐2 spike protein pseudotyped lentivirus, Omicron variant. Description: organism not typed. The following applies: read-out: Pseudovirus assay, IC50, Omicron.
Experiment [4] relates to SARS‐CoV‐2 spike protein pseudotyped lentivirus, D614G, Delta, and Omicron variants. As to conditions: for IC50: read-out: Pseudovirus assay, IC50 values as a range over D614G, Delta, and Omicron variants.

Read-outs that look alike come from different tables or passages of the source. Some results are limits rather than exact numbers.

Take `COc1ccc2cc1Oc1ccc(cc1)C[C@H]1c3c(cc4c(c3Oc3cc5c(cc3OC)CCN(C)[C@@H]5C2)OCO4)CCN1C` [Cepharantine, Cepharanthine, reference compound]: the IC50 in experiment [1] came to 480 ± 90 nM; in experiment [2] (HEK-293T), 1640 ± 180 nM; in experiment [3] (HEK-293T) it was 1310 ± 70 nM.

As for `COc1cc2c3cc1Oc1c(OC)c(OC)cc4c1[C@@H](Cc1ccc(O)c(c1)Oc1ccc(cc1)C[C@@H]3N(C)CC2)N(C)CC4` [Compound 17, (+)‐berbamine], the IC50 in experiment [1] amounted to 2230 ± 490 nM; in experiment [2] (HEK-293T) it was 2560 ± 160 nM; in experiment [3] (HEK-293T), 2290 ± 290 nM.

Turning to `COc1cc2c3cc1Oc1c(O)c(OC)cc4c1[C@@H](Cc1ccc(O)c(c1)Oc1ccc(cc1)C[C@@H]3N(C)CC2)N(C)CC4` [Compound 19, (+)‐obamegine], the IC50 in experiment [1] came to 1400 ± 350 nM; in experiment [2] (HEK-293T), 2610 ± 420 nM; in experiment [3] (HEK-293T), 1190 ± 160 nM.

Turning to `CC(C)C[C@H](NC(=O)[C@H]1O[C@@H]1C(=O)O)C(=O)NCCCCN=C(N)N` [E‐64, reference compound], the IC50 is 23100 ± 630 nM in experiment [1] (mean ± SEM (n = 3)), 23100 ± 1300 nM in experiment [2] (mean ± SEM (n = 3)), 22700 ± 1280 nM in experiment [3] (mean ± SEM (n = 3)) and 22700 to 23100 nM in experiment [4].

Turning to (+)‐aromoline [Compound 16], the IC50 in experiment [1] is 670 ± 90 nM; in experiment [2] (mean ± SEM (n = 3)) it was 470 ± 80 nM; in experiment [3] (mean ± SEM (n = 3)), 860 ± 120 nM; in experiment [4] it was 470 to 660 nM.

Regarding (±)‐Haemanthidine [Compound 1], the IC50 in experiment [1] (mean ± SEM (n = 3)) and in experiment [2] (mean ± SEM (n = 3)) was > 10000 nM throughout. The “activity in SARS‐CoV‐2 S‐protein and ACE2 binding (pseudovirus) assay (in words)” value in experiment [4] was “inactive at nontoxic concentration”.
